According to patent publication US20050176619A1, “Antitumoral formulations of thioxanthenone” (priority 2001, published 2005):
Values after ≈ are worked out from the molar mass of the structure shown.

Assays:
Solubility in water = format: physicochemical
Text: (§1) It is desirable in the treatment of tumors and cancers to provide the active pharmaceutical ingredient as a ready-to-use (RTU) solution formulation which is pharmaceutically stable over prolonged periods of storage. […] Accordingly, it is an object of the present invention to overcome these difficulties by providing a stable solution formulation of N-[[1-[[2-(diethylamino)ethyl]amino]-7-methoxy-9-oxothioxanthen-4-yl]methyl]formamide, or a pharmaceutically acceptable acid-addition salt thereof, in ready-to-use form.

[1] = Stability under acidic conditions; format: physicochemical
Text: as §1

solubility (Solubility in water): 100 µg/mL (≈ 242 µM) | stability under acidic conditions [1]: unstable under acidic conditions
Compound: CCN(CC)CCNc1ccc(CNC=O)c2sc3ccc(OC)cc3c(=O)c12 [N-[[1-[[2-(diethylamino)ethyl]amino]-7-methoxy-9-oxothioxanthen-4-yl]methyl]formamide]
